One block for each compound: values may come before it.
Key:
[1] = target: T1, Indoleamine 2,3-dioxygenase 1 (Homo sapiens, UniProt P14902); assay: Inhibition of N-terminal His-tagged human recombinant IDO1 expressed in Escherichia coli using L-tryptophan as substrate preincubated for 10 mins followed by substrate addition measured after 30 mins by plate reader analysis
[2] = Competitive inhibition of rabbit small intestine IDO1 by double reciprocal plot analysis in presence of L-tryptophan; parameters: species or system Oryctolagus cuniculus
[3] = target: T1, Indoleamine 2,3-dioxygenase 1; assay: Inhibition of IDO (unknown origin)
[4] = target: T1, Indoleamine 2,3-dioxygenase 1; assay: Inhibition of human IDO using L-tryptophan as substrate preincubated for 5 mins followed by substrate addition measured after 15 mins by spectrophotometric analysis
[5] = target: T1, Indoleamine 2,3-dioxygenase 1; assay: Inhibition of human IDO1 in HEK293 cells after 20 hrs by plate reader assay; format: cell-based
[6] = target: T1, Indoleamine 2,3-dioxygenase 1; assay: Inhibition of IFN-gamma-stimulated IDO1 activity in human HeLa cells using L-tryptophan as substrate after 48 hrs by spectrophotometric analysis; format: cell-based
[7] = target: T1, Indoleamine 2,3-dioxygenase 1; assay: Noncompetitive inhibition of human recombinant IDO1 expressed in Escherichia coli by Michaelis-Menton nonlinear regression plot analysis in presence of L-tryptophan
[8] = target: T1, Indoleamine 2,3-dioxygenase 1; assay: Competitive inhibition of 6His-tagged human recombinant IDO expressed in Escherichia coli BL21DE3pLys
[9] = target: T1, Indoleamine 2,3-dioxygenase 1; assay: Inhibition of N-terminal hexa-Histidine tagged human IDO1 expressed in Escherichia coli using L-tryptophan as substrate after 30 mins by HPLC analysis
[10] = target: T1, Indoleamine 2,3-dioxygenase 1; assay: Inhibition of human recombinant IDO1 using L-tryptophan as substrate after 15 mins by Dixon plot analysis
[11] = target: T1, Indoleamine 2,3-dioxygenase 1; assay: Inhibition of N-terminal His-tagged human recombinant IDO1 expressed in Escherichia coli using L-tryptophan as substrate by methylene blue/ascorbate assay
[12] = target: T1, Indoleamine 2,3-dioxygenase 1; assay: Inhibition of N-terminal His-tagged human recombinant IDO1 expressed in Escherichia coli using tryptophan as substrate by UV-visible absorption spectroscopy
[13] = target: T1, Indoleamine 2,3-dioxygenase 1; assay: Inhibition of human recombinant IDO1 expressed in yeast IS20-2B using tryptophan as substrate by methylene blue/ascorbate assay
[14] = target: T1, Indoleamine 2,3-dioxygenase 1; assay: Inhibition of 6His-tagged human recombinant IDO1 expressed in Escherichia coli EC 539 using L-tryptophan as substrate after 1 hr by plate reader analysis
[15] = target: T1, Indoleamine 2,3-dioxygenase 1; assay: Inhibition of C-terminal 6His-tagged human IDO using L-tryptophan as substrate preincubated for 5 mins followed by substrate addition measured after 15 mins by spectrophotometric analysis

T1 sequence (P14902 whole entry): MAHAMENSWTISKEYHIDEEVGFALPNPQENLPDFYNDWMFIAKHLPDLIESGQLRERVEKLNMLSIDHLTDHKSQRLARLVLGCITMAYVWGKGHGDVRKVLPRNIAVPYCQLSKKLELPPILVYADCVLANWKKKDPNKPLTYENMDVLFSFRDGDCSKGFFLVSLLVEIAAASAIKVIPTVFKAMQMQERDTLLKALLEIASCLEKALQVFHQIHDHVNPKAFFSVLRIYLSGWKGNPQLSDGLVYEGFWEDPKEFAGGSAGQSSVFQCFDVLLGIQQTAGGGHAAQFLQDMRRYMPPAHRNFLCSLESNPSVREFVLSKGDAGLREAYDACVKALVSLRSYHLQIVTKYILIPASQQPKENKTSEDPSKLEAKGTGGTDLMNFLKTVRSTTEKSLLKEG

- IC50 [1]: 240 nM
SMILES: COC1=CC(=O)c2oc(C)c(CO)c2C1=O

- IC50 [4]: < 10 µM
SMILES: NOCc1ccccc1

- IC50 [5]: 5 nM
SMILES: Cc1ccc(CC(=O)Nc2cc(-c3ccccc3-c3nnn[nH]3)ccc2N2CC3CC2CN3Cc2ccccc2)cc1 (stereo not drawn)

- Ki [7]: 100 nM
SMILES: CC1(C)CCC2=C(O1)c1ccccc1C(=O)C2=O [LAPACHONE]

- IC50 [5]: 3 nM
SMILES: CCCC(CCC)Oc1c(Br)cc(-c2ccccc2-c2nnn[nH]2)cc1NC(=O)Nc1ccccc1F

- IC50 [5]: 3 nM
SMILES: CC(C)CN(CC(C)C)c1ccc(C(CC(=O)O)C(F)(F)F)cc1NC(=O)Nc1ccc(F)cc1F (stereo not drawn)

- IC50 [9]: < 200 nM
SMILES: N#CC(Nc1ccc(F)c(Cl)c1)c1cc(Cl)ccc1O (stereo not drawn)

- Ki [10]: 4.3 µM
SMILES: N=C1C=C(N)C(=O)c2[nH]c(=O)ccc21

- IC50 [12]: < 200 nM
SMILES: Nc1oc2c(-c3ccnc(N4CCOCC4)c3)nccc2c1Nc1ccc(F)c(Cl)c1

- Ki [13]: 1500 nM
SMILES: C/N=C(N)/N=C(\N)Nc1cc2ccccc2c2ccccc12

More lines, now with the values behind:

SMILES: N[C@@H](CC1=CCC=CC1)C(=O)O
- Ki [2]: 230 µM

SMILES: CN1C(=O)c2ccccc2-n2c(nc3ccccc3c2=O)C1[C@H](O)c1ccccc1 (stereo partly drawn)
- IC50 [3]: 21 µM

SMILES: CCc1ccccc1Nc1cnn[nH]1
- IC50 [6]: < 1000 nM

SMILES: CN1C(=O)C(Cc2c[nH]c3ccccc23)NC1=S (stereo not drawn) [NECROSTATIN]
- Ki [8]: 12 µM

SMILES: CC1(C)CCC[C@]2(C)[C@H]3CC=C(C=O)CC(O)[C@]3(C=O)CC[C@@H]12 (stereo partly drawn)
- IC50 [11]: 7.7 µM

SMILES: COc1cc(OC(=O)c2c(C)c(C)c(OC(=O)c3c(C)cc(O)c(C)c3O)c(C)c2OC)c(C)c(C)c1C(=O)O
- IC50 [3]: 15 µM

SMILES: COc1cccc2c1C(=O)C1=C(C[C@H](Cn3cc(-c4ccccc4)nn3)O[C@@H]1C)C2=O
- IC50 [14]: 6 µM

SMILES: O=C(Cc1ccccc1)Nc1ccc(CCOc2ccccc2-c2cnc[nH]2)cc1
- IC50 [15]: < 1000 nM

Reference: ChEMBL document CHEMBL3745640, “Challenges in the Discovery of Indoleamine 2,3-Dioxygenase 1 (IDO1) Inhibitors” (J Med Chem, 2015)
